{
  "source": "the supplement of paper PMC10307832",
  "test_in_all_cases": "relative viability (nuclei count vs DMSO), 5 days (fraction); higher = more cells survive",
  "key": {"[1]": {"system": "NCI-H2087", "how_it_was_run": "(§1)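 Lung cancer cell lines in 1536-well plates got either a single drug or a fixed anchor-drug dose together with five library-drug doses (not always all listed) in √10 steps, by pin tool, on the day after seeding. Nuclei were counted after 5 days, and relative viability is the treated-to-vehicle ratio of nuclei counts. Values are medians of duplicate plates.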"}, "[2]": {"system": "NCI-H1299", "how_it_was_run": "as §1"}, "[3]": {"system": "HCC-44", "how_it_was_run": "as §1"}, "[4]": {"system": "IA-LM", "how_it_was_run": "as §1"}, "[5]": {"system": "EBC-1", "how_it_was_run": "as §1"}, "[6]": {"system": "NCI-H322M", "how_it_was_run": "as §1"}, "[7]": {"system": "A549", "how_it_was_run": "as §1"}, "[8]": {"system": "NCI-H1703", "how_it_was_run": "as §1"}, "[9]": {"system": "HCC-78", "how_it_was_run": "as §1"}, "[10]": {"system": "Calu-6", "how_it_was_run": "as §1"}, "[11]": {"system": "NCI-H1563", "how_it_was_run": "as §1"}},
  "data": [
    {"smiles": "Cc1cn(-c2cc(NC(=O)c3ccc(C)c(Nc4nccc(-c5cccnc5)n4)c3)cc(C(F)(F)F)c2)cn1", "note": "[Nilotinib] + CC1(C)CCC(c2ccc(Cl)cc2)=C(CN2CCN(c3ccc(C(=O)NS(=O)(=O)c4ccc(N[C@H](CCN5CCOCC5)CSc5ccccc5)c(S(=O)(=O)C(F)(F)F)c4)cc3)CC2)C1 [Navitoclax] (partner 0.5 µM)", "values": [
      {"measurement": "relative viability", "setting": "[1]; first compound 0.001 µM", "value": 0.795},
      {"measurement": "relative viability", "setting": "[1]; first compound 0.003162 µM", "value": 0.86},
      {"measurement": "relative viability", "setting": "[1]; first compound 0.01 µM", "value": 0.997},
      {"measurement": "relative viability", "setting": "[1]; first compound 0.03162 µM", "value": 0.93},
      {"measurement": "relative viability", "setting": "[1]; first compound 0.1 µM", "value": 0.734},
      {"measurement": "relative viability", "setting": "[2]; first compound 0.003162 µM", "value": 1.08},
      {"measurement": "relative viability", "setting": "[2]; first compound 0.01 µM", "value": 1.13},
      {"measurement": "relative viability", "setting": "[2]; first compound 0.03162 µM", "value": 1.07},
      {"measurement": "relative viability", "setting": "[2]; first compound 0.1 µM", "value": 1.03},
      {"measurement": "relative viability", "setting": "[3]; first compound 0.001 µM", "value": 0.845},
      {"measurement": "relative viability", "setting": "[3]; first compound 0.003162 µM", "value": 1.22},
      {"measurement": "relative viability", "setting": "[3]; first compound 0.01 µM", "value": 1.39},
      {"measurement": "relative viability", "setting": "[3]; first compound 0.03162 µM", "value": 0.844},
      {"measurement": "relative viability", "setting": "[3]; first compound 0.1 µM", "value": 0.999},
      {"measurement": "relative viability", "setting": "[4]; first compound 0.001 µM", "value": 0.499},
      {"measurement": "relative viability", "setting": "[4]; first compound 0.003162 µM", "value": 0.603},
      {"measurement": "relative viability", "setting": "[4]; first compound 0.01 µM", "value": 0.795},
      {"measurement": "relative viability", "setting": "[4]; first compound 0.03162 µM", "value": 0.747},
      {"measurement": "relative viability", "setting": "[4]; first compound 0.1 µM", "value": 0.889},
      {"measurement": "relative viability", "setting": "[5]; first compound 0.001 µM", "value": 0.351},
      {"measurement": "relative viability", "setting": "[5]; first compound 0.003162 µM", "value": 0.373},
      {"measurement": "relative viability", "setting": "[5]; first compound 0.01 µM", "value": 0.332},
      {"measurement": "relative viability", "setting": "[5]; first compound 0.03162 µM", "value": 0.289},
      {"measurement": "relative viability", "setting": "[5]; first compound 0.1 µM", "value": 0.186},
      {"measurement": "relative viability", "setting": "[6]; first compound 0.001 µM", "value": 1.09},
      {"measurement": "relative viability", "setting": "[6]; first compound 0.003162 µM", "value": 1.51},
      {"measurement": "relative viability", "setting": "[6]; first compound 0.03162 µM", "value": 0.954},
      {"measurement": "relative viability", "setting": "[6]; first compound 0.1 µM", "value": 1.16},
      {"measurement": "relative viability", "setting": "[7]; first compound 0.001 µM", "value": 1.2},
      {"measurement": "relative viability", "setting": "[7]; first compound 0.003162 µM", "value": 1.47},
      {"measurement": "relative viability", "setting": "[7]; first compound 0.01 µM", "value": 1.14},
      {"measurement": "relative viability", "setting": "[7]; first compound 0.03162 µM", "value": 0.789},
      {"measurement": "relative viability", "setting": "[8]; first compound 0.001 µM", "value": 1.01},
      {"measurement": "relative viability", "setting": "[8]; first compound 0.003162 µM", "value": 0.482},
      {"measurement": "relative viability", "setting": "[8]; first compound 0.01 µM", "value": 0.325},
      {"measurement": "relative viability", "setting": "[8]; first compound 0.03162 µM", "value": 0.229},
      {"measurement": "relative viability", "setting": "[9]; first compound 0.001 µM", "value": 0.876},
      {"measurement": "relative viability", "setting": "[9]; first compound 0.003162 µM", "value": 0.692},
      {"measurement": "relative viability", "setting": "[9]; first compound 0.01 µM", "value": 0.945},
      {"measurement": "relative viability", "setting": "[9]; first compound 0.03162 µM", "value": 0.724},
      {"measurement": "relative viability", "setting": "[9]; first compound 0.1 µM", "value": 0.737},
      {"measurement": "relative viability", "setting": "[10]; first compound 0.001 µM", "value": 0.781},
      {"measurement": "relative viability", "setting": "[10]; first compound 0.003162 µM", "value": 0.845},
      {"measurement": "relative viability", "setting": "[10]; first compound 0.01 µM", "value": 1.05},
      {"measurement": "relative viability", "setting": "[10]; first compound 0.03162 µM", "value": 0.641},
      {"measurement": "relative viability", "setting": "[10]; first compound 0.1 µM", "value": 0.929}
    ]},
    {"smiles": "Cc1cn(-c2cc(NC(=O)c3ccc(C)c(Nc4nccc(-c5cccnc5)n4)c3)cc(C(F)(F)F)c2)cn1", "note": "[Nilotinib] + CC(C)C[C@H](NC(=O)[C@H](Cc1ccccc1)NC(=O)c1cnccn1)B(O)O [Bortezomib] (partner 0.002 µM)", "values": [
      {"measurement": "relative viability", "setting": "[11]; first compound 0.001 µM", "value": 0.878},
      {"measurement": "relative viability", "setting": "[11]; first compound 0.003162 µM", "value": 0.84},
      {"measurement": "relative viability", "setting": "[11]; first compound 0.01 µM", "value": 0.79},
      {"measurement": "relative viability", "setting": "[11]; first compound 0.03162 µM", "value": 0.704},
      {"measurement": "relative viability", "setting": "[11]; first compound 0.1 µM", "value": 0.623},
      {"measurement": "relative viability", "setting": "[1]; first compound 0.001 µM", "value": 0.693},
      {"measurement": "relative viability", "setting": "[1]; first compound 0.003162 µM", "value": 1.03},
      {"measurement": "relative viability", "setting": "[1]; first compound 0.01 µM", "value": 0.762},
      {"measurement": "relative viability", "setting": "[1]; first compound 0.03162 µM", "value": 0.68},
      {"measurement": "relative viability", "setting": "[1]; first compound 0.1 µM", "value": 0.296},
      {"measurement": "relative viability", "setting": "[2]; first compound 0.003162 µM", "value": 1.07},
      {"measurement": "relative viability", "setting": "[2]; first compound 0.01 µM", "value": 1.05},
      {"measurement": "relative viability", "setting": "[2]; first compound 0.03162 µM", "value": 1.01},
      {"measurement": "relative viability", "setting": "[2]; first compound 0.1 µM", "value": 0.933},
      {"measurement": "relative viability", "setting": "[3]; first compound 0.001 µM", "value": 0.885},
      {"measurement": "relative viability", "setting": "[3]; first compound 0.003162 µM", "value": 0.968},
      {"measurement": "relative viability", "setting": "[3]; first compound 0.01 µM", "value": 0.853},
      {"measurement": "relative viability", "setting": "[3]; first compound 0.03162 µM", "value": 0.871},
      {"measurement": "relative viability", "setting": "[3]; first compound 0.1 µM", "value": 0.873},
      {"measurement": "relative viability", "setting": "[4]; first compound 0.001 µM", "value": 0.616},
      {"measurement": "relative viability", "setting": "[4]; first compound 0.003162 µM", "value": 0.698},
      {"measurement": "relative viability", "setting": "[4]; first compound 0.01 µM", "value": 0.685},
      {"measurement": "relative viability", "setting": "[4]; first compound 0.03162 µM", "value": 0.808},
      {"measurement": "relative viability", "setting": "[4]; first compound 0.1 µM", "value": 0.714},
      {"measurement": "relative viability", "setting": "[5]; first compound 0.001 µM", "value": 0.488},
      {"measurement": "relative viability", "setting": "[5]; first compound 0.003162 µM", "value": 0.55},
      {"measurement": "relative viability", "setting": "[5]; first compound 0.01 µM", "value": 0.417},
      {"measurement": "relative viability", "setting": "[5]; first compound 0.03162 µM", "value": 0.437},
      {"measurement": "relative viability", "setting": "[5]; first compound 0.1 µM", "value": 0.241},
      {"measurement": "relative viability", "setting": "[6]; first compound 0.001 µM", "value": 1.27},
      {"measurement": "relative viability", "setting": "[6]; first compound 0.003162 µM", "value": 1.47},
      {"measurement": "relative viability", "setting": "[6]; first compound 0.03162 µM", "value": 1.18},
      {"measurement": "relative viability", "setting": "[6]; first compound 0.1 µM", "value": 1.39},
      {"measurement": "relative viability", "setting": "[8]; first compound 0.001 µM", "value": 0.232},
      {"measurement": "relative viability", "setting": "[8]; first compound 0.003162 µM", "value": 0.208},
      {"measurement": "relative viability", "setting": "[8]; first compound 0.01 µM", "value": 0.148},
      {"measurement": "relative viability", "setting": "[8]; first compound 0.03162 µM", "value": 0.141},
      {"measurement": "relative viability", "setting": "[8]; first compound 0.1 µM", "value": 0.125},
      {"measurement": "relative viability", "setting": "[9]; first compound 0.001 µM", "value": 0.433},
      {"measurement": "relative viability", "setting": "[9]; first compound 0.003162 µM", "value": 0.514},
      {"measurement": "relative viability", "setting": "[9]; first compound 0.01 µM", "value": 0.654},
      {"measurement": "relative viability", "setting": "[9]; first compound 0.03162 µM", "value": 0.55},
      {"measurement": "relative viability", "setting": "[9]; first compound 0.1 µM", "value": 0.518},
      {"measurement": "relative viability", "setting": "[10]; first compound 0.001 µM", "value": 0.934},
      {"measurement": "relative viability", "setting": "[10]; first compound 0.003162 µM", "value": 1.02},
      {"measurement": "relative viability", "setting": "[10]; first compound 0.01 µM", "value": 0.929},
      {"measurement": "relative viability", "setting": "[10]; first compound 0.03162 µM", "value": 1.02},
      {"measurement": "relative viability", "setting": "[10]; first compound 0.1 µM", "value": 1.01}
    ]}
  ]
}
